Common to all, as to type: binding
Assay [1] concerns the target T1, human transferrin receptor (hTfR) (Homo sapiens, UniProt P02786). Kind of assay: Evaluation of pH dependence (ratio of SPR koff or KD at pH 6.0 to pH 7.4). The conditions noted are these: ratio of koff at pH 6.0 to pH 7.4. The protocol:
The ratio of the calculated koff or KD values under pH 6.0 conditions to those under pH 7.4 conditions was calculated to check pH dependency.

For assay [2], the target named is T1, human transferrin receptor (hTfR). The assay can be described thus: SPR measurement under pH 6.0 conditions (Biacore T200, NTA chip, immobilized hTfR). The conditions noted are these: SPR, pH 6.0; read-out: hTfR SPR pH6.0 KD. Background: Surface plasmon resonance follows binding to a sensor surface in real time, without labels.
Assay [3] shares this target. Kind of assay: SPR measurement under pH 7.4 conditions (Biacore T200, CM3 chip, hTfR captured by His Tag antibody). The conditions noted are these: SPR, pH 7.4; read-out: hTfR SPR pH7.4 KD.

Results on eight compounds are retold here after EP4667483A1, “HUMAN TRANSFERRIN RECEPTOR-BINDING PEPTIDE” (JCR Pharmaceuticals Co., Ltd., priority 2023, dated 2024).

Usually Kd stands for the constant that tells how readily two partners part at equilibrium.

Bridge positions count the residues as written; N and C are the ends. Square brackets hold non-standard residues; d marks the D form. Peptide text beside a SMILES is read from it. * marks the point of attachment. Trp(1-CH2COOH) = N[C@@H](Cc1cn(CC(=O)O)c2ccccc12)C(=O)O; Nle(6-morpholino) = N[C@@H](CCCCN1CCOCC1)C(=O)O; Phe(3-COOH) = N[C@@H](Cc1cccc(C(=O)O)c1)C(=O)O; NMePhe(3-Cl) = CN[C@@H](Cc1cccc(Cl)c1)C(=O)O; NMePhe(4-Cl) = CN[C@@H](Cc1ccc(Cl)cc1)C(=O)O; 3Pal(6-NH2) = Nc1ccc(C[C@H](N)C(=O)O)cn1; NMeY = CN[C@@H](Cc1ccc(O)cc1)C(=O)O; Nva(3-Et) = CCC(CC)[C@H](N)C(=O)O; NH(CH2CH2O)4Me = COCCOCCOCCOCCN*; hArg = N=C(N)NCCCC[C@H](N)C(=O)O; 4Pal = N[C@@H](Cc1ccncc1)C(=O)O; PEG4 = NCCOCCOCCOCCOCCC(=O)O; Carboxymethyl = O=C(O)C*

T1 sequence (P02786 whole entry): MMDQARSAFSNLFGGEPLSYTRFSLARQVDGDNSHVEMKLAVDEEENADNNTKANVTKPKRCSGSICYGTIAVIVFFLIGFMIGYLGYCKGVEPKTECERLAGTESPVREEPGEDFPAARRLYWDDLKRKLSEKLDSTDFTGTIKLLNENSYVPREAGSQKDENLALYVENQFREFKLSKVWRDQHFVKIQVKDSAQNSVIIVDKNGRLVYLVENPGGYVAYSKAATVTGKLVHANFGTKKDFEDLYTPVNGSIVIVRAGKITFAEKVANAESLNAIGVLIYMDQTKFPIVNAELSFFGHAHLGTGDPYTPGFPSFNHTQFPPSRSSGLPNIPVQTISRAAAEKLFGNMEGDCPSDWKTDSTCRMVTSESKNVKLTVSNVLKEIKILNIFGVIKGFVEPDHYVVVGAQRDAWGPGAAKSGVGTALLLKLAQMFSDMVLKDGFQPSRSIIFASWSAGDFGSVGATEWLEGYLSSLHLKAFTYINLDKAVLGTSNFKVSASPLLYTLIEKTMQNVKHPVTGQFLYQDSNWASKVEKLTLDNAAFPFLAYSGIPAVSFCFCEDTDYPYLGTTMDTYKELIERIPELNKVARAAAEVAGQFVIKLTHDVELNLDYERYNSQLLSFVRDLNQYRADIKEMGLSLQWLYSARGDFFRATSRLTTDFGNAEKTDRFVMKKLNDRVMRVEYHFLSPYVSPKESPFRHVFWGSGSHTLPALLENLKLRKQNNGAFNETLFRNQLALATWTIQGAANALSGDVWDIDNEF

Turning to `CCC(CC)[C@@H]1NC(=O)[C@H](Cc2ccc(OCC(=O)O)cc2)NC(=O)[C@H](Cc2ccc(O)cc2)NC(=O)[C@H](CC(N)=O)NC(=O)[C@H](Cc2cn(CC(=O)O)c3ccccc23)NC(=O)[C@H](C(C)C)NC(=O)[C@H](Cc2cccc(Cl)c2)N(C)C(=O)[C@H](C(C)C)NC(=O)[C@H](C)NC(=O)CSC[C@@H](C(=O)NCCOCCOCCOCCOCCC(N)=O)NC(=O)[C@H](Cc2ccc(O)cc2)N(C)C(=O)[C@H](Cc2cccc(C(=O)O)c2)NC(=O)[C@H](CCCNC(=N)N)NC(=O)[C@H](CCC(N)=O)NC(=O)[C@H]([C@@H](C)CC)NC1=O` [compound 88] ({CH2CO}-AV[NMePhe(3-Cl)]V[Trp(1-CH2COOH)]NYY(Carboxymethyl)[Nva(3-Et)]IQR[Phe(3-COOH)][NMeY]C[PEG4]-NH2; thioether N-15), in assay [1], the “dependency koff pH6.0/7.4” value amounted to 8.60. In addition, the Kd in assay [2] was found to be 51.1 nM; in assay [3], 6.96 nM.
For `CCC(CC)[C@@H]1NC(=O)[C@H](Cc2ccc(OCC(=O)O)cc2)NC(=O)[C@H](Cc2ccc(O)cc2)NC(=O)[C@H](CC(N)=O)NC(=O)[C@H](Cc2c[nH]c3ccccc23)NC(=O)[C@H](C(C)C)NC(=O)[C@H](Cc2cccc(Cl)c2)N(C)C(=O)[C@H](C(C)C)NC(=O)[C@H](C)NC(=O)CSC[C@@H](C(=O)NCCOCCOCCOCCOCCC(N)=O)NC(=O)[C@H](Cc2ccc(O)cc2)N(C)C(=O)[C@H](Cc2cccc(C(=O)O)c2)NC(=O)[C@H](CCCNC(=N)N)NC(=O)[C@H](CCC(N)=O)NC(=O)[C@H]([C@@H](C)CC)NC1=O` [compound 75] ({CH2CO}-AV[NMePhe(3-Cl)]VWNYY(Carboxymethyl)[Nva(3-Et)]IQR[Phe(3-COOH)][NMeY]C[PEG4]-NH2; thioether N-15), in that order: 34.44, 6.33 nM and 1.62 nM.
The like results for `CC[C@H](C)[C@@H]1NC(=O)[C@H](Cc2ccc(OCC(=O)O)cc2)NC(=O)[C@H](Cc2ccc(N)nc2)NC(=O)[C@H](CC(N)=O)NC(=O)[C@H](Cc2c[nH]c3ccccc23)NC(=O)[C@H](C(C)C)NC(=O)[C@H](Cc2cccc(Cl)c2)N(C)C(=O)[C@H](C(C)C)NC(=O)[C@H](C)NC(=O)CSC[C@@H](C(=O)NCCOCCOCCOCCOCCC(N)=O)NC(=O)[C@H](Cc2ccc(O)cc2)N(C)C(=O)[C@H](Cc2cccc(C(=O)O)c2)NC(=O)[C@H](CCCNC(=N)N)NC(=O)[C@H](CCC(=O)NCCOCCOCCOCCOC)NC(=O)[C@H]([C@@H](C)CC)NC1=O` [compound 70] ({CH2CO}-AV[NMePhe(3-Cl)]VWN[3Pal(6-NH2)]Y(Carboxymethyl)IIE(NH(CH2CH2O)4Me)R[Phe(3-COOH)][NMeY]C[PEG4]-NH2; thioether N-15) were, in that order, 20.00, 42.4 nM and 6.85 nM.
Turning to `CCC(CC)[C@@H]1NC(=O)[C@H](Cc2ccc(OCC(=O)O)cc2)NC(=O)[C@H](Cc2ccc(N)nc2)NC(=O)[C@H](CC(N)=O)NC(=O)[C@H](Cc2cn(CC(=O)O)c3ccccc23)NC(=O)[C@H](C(C)C)NC(=O)[C@H](Cc2cccc(Cl)c2)N(C)C(=O)[C@H](C(C)C)NC(=O)[C@H](C)NC(=O)CSC[C@@H](C(=O)NCCOCCOCCOCCOCCC(N)=O)NC(=O)[C@H](Cc2ccc(O)cc2)N(C)C(=O)[C@H](Cc2cccc(C(=O)O)c2)NC(=O)[C@H](CCCNC(=N)N)NC(=O)[C@H](CCC(N)=O)NC(=O)[C@H]([C@@H](C)CC)NC1=O` [compound 84] ({CH2CO}-AV[NMePhe(3-Cl)]V[Trp(1-CH2COOH)]N[3Pal(6-NH2)]Y(Carboxymethyl)[Nva(3-Et)]IQR[Phe(3-COOH)][NMeY]C[PEG4]-NH2; thioether N-15), in assay [1], the “dependency koff pH6.0/7.4” value came to 17.42. Besides, the results for the Kd in assay [2] and in assay [3] were 219 nM and 1910 nM, respectively.
As to `CC[C@H](C)[C@@H]1NC(=O)[C@H](Cc2ccc(OCC(=O)O)cc2)NC(=O)[C@H](Cc2ccc(O)cc2)NC(=O)[C@H](CC(=O)NC)NC(=O)[C@H](Cc2c[nH]c3ccccc23)NC(=O)[C@H](C(C)C)NC(=O)[C@H](Cc2cccc(Cl)c2)N(C)C(=O)[C@H](C(C)C)NC(=O)[C@H](C)NC(=O)CSC[C@@H](C(=O)NCCOCCOCCOCCOCCC(N)=O)NC(=O)[C@H](Cc2ccc(O)cc2)N(C)C(=O)[C@H](Cc2cccc(C(=O)O)c2)NC(=O)[C@H](CCCNC(=N)N)NC(=O)[C@H](CCC(N)=O)NC(=O)[C@H]([C@@H](C)CC)NC1=O` [compound 74] ({CH2CO}-AV[NMePhe(3-Cl)]VWD(NHMe)YY(Carboxymethyl)IIQR[Phe(3-COOH)][NMeY]C[PEG4]-NH2; thioether N-15), the “dependency koff pH6.0/7.4” value in assay [1] is on record as 3.53. Moreover, the figures for the Kd in assay [2] and in assay [3] were 76.2 nM and 45.3 nM, respectively.
For `CCC(CC)[C@@H]1NC(=O)[C@H](Cc2ccc(OCC(=O)O)cc2)NC(=O)[C@H](Cc2ccc(O)cc2)NC(=O)[C@H](CC(N)=O)NC(=O)[C@H](Cc2cn(CC(=O)O)c3ccccc23)NC(=O)[C@H](C(C)C)NC(=O)[C@H](Cc2cccc(Cl)c2)N(C)C(=O)[C@H](C(C)C)NC(=O)[C@H](C)NC(=O)CSC[C@@H](C(=O)NCCOCCOCCOCCOCCC(N)=O)NC(=O)[C@H](Cc2ccc(Cl)cc2)N(C)C(=O)[C@H](Cc2cccc(C(=O)O)c2)NC(=O)[C@H](CCCNC(=N)N)NC(=O)[C@H](CCC(N)=O)NC(=O)[C@H]([C@@H](C)CC)NC1=O` [compound 92] ({CH2CO}-AV[NMePhe(3-Cl)]V[Trp(1-CH2COOH)]NYY(Carboxymethyl)[Nva(3-Et)]IQR[Phe(3-COOH)][NMePhe(4-Cl)]C[PEG4]-NH2; thioether N-15), in that order: 5.47, 44.1 nM and 13.8 nM.
For `CC[C@H](C)[C@@H]1NC(=O)[C@H](Cc2ccc(OCC(=O)O)cc2)NC(=O)[C@H](Cc2ccc(O)cc2)NC(=O)[C@H](CC(N)=O)NC(=O)[C@H](Cc2cn(CC(=O)O)c3ccccc23)NC(=O)[C@H](C(C)C)NC(=O)[C@H](Cc2cccc(Cl)c2)N(C)C(=O)[C@H](C(C)C)NC(=O)[C@H](C)NC(=O)CSC[C@@H](C(=O)NCCOCCOCCOCCOCCC(N)=O)NC(=O)[C@H](Cc2ccc(O)cc2)N(C)C(=O)[C@H](Cc2ccncc2)NC(=O)[C@H](CCCCN2CCOCC2)NC(=O)[C@H](CCCCN2CCOCC2)NC(=O)[C@H]([C@@H](C)CC)NC1=O` [compound 69] ({CH2CO}-AV[NMePhe(3-Cl)]V[Trp(1-CH2COOH)]NYY(Carboxymethyl)II[Nle(6-morpholino)][Nle(6-morpholino)][4Pal][NMeY]C[PEG4]-NH2; thioether N-15), in that order: 9.63, 33.5 nM and 8.57 nM.
Take `CC[C@H](C)[C@@H]1NC(=O)[C@H](Cc2ccc(OCC(=O)O)cc2)NC(=O)[C@H](Cc2ccc(O)cc2)NC(=O)[C@H](CC(N)=O)NC(=O)[C@H](Cc2cn(CC(=O)O)c3ccccc23)NC(=O)[C@H](C(C)C)NC(=O)[C@H](Cc2cccc(Cl)c2)N(C)C(=O)[C@H](C(C)C)NC(=O)[C@H](C)NC(=O)CSC[C@@H](C(=O)NCCOCCOCCOCCOCCC(N)=O)NC(=O)[C@H](Cc2ccc(O)cc2)N(C)C(=O)[C@H](Cc2cccc(C(=O)O)c2)NC(=O)[C@H](CCCNC(=N)N)NC(=O)[C@H](CCC(N)=O)NC(=O)[C@H](CCCCNC(=N)N)NC1=O` [compound 71] ({CH2CO}-AV[NMePhe(3-Cl)]V[Trp(1-CH2COOH)]NYY(Carboxymethyl)I[hArg]QR[Phe(3-COOH)][NMeY]C[PEG4]-NH2; thioether N-15): the “dependency koff pH6.0/7.4” value in assay [1] turned out to be 12.78. The results for the Kd in assay [2] and in assay [3] were 75.2 nM and 18 nM, respectively.
